Results: patent US20240217928A1, “HALOACETHYDRAZIDES USEFUL AS AEP INHIBITORS” (Hoffmann-La Roche Inc., priority 2021, published 2024)

What follows are compounds tested against T1, rhlegumain (hLGMN(V18-Y433)_VD-8xHis-S2-r) (Homo sapiens, UniProt Q99538) (assay: AEP activity enzymatic assay). Conditions: not given.
T1 construct: construct name: hLGMN(V18-Y433)_VD-8xHis-S2-r; VD linker (C); 8xHis (C); made in house
T1 sequence (Q99538 26-323 limits assumed): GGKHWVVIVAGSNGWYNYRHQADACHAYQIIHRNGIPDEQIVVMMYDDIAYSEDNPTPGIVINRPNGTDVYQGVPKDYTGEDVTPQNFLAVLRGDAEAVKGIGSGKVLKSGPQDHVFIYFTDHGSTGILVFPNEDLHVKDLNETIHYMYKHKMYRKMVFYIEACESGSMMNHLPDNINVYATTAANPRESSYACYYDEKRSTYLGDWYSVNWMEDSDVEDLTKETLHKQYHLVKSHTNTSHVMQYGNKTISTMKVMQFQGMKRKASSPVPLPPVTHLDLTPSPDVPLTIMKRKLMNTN
Assay type: biochemical
Description: Prior to the assay measurements, rhlegumain (in house, construct name: hLGMN(V18-Y433)_VD-8xHis-S2-r) is activated by diluting it from 1.1 mg/ml to 0.1 mg/ml (11-fold) in activation buffer (50 mM sodium acetate, 100 mM NaCl, pH 4.0) and incubation at 37° C. for 2 h. The activated enzyme solution stock is stored at −80° C.
`NC(=O)CN(NC(=O)[C@@H]1CCCN1C(=O)CCc1ccccc1)C(=O)CF` [Example 2, 2-[(2-Fluoroacetyl)-[[(2S)-1-(3-Phenylpropanoyl)Pyrrolidine-2-Carbonyl]Amino]Amino]Acetamide] gave an IC50 of 72.9 nM. In the case of `C#Cc1ccc(C2(C(=O)N3CCC[C@H]3C(=O)NN(CC(N)=O)C(=O)CF)CC2)cc1` [Example 11, 2-[(2-Fluoroacetyl)-[[(2S)-1-[1-(4-Ethynylphenyl)Cyclopropanecarbonyl]Pyrrolidine-2-Carbonyl]Amino]Amino]Acetamide], the IC50 is reported as 1.2 nM. `NC(=O)CN(NC(=O)[C@@H]1CCCN1S(=O)(=O)Cc1ccccc1)C(=O)CF` [Example 9, 2-[(2-Fluoroacetyl)-[[(2S)-1-Benzylsulfonylpyrrolidine-2-Carbonyl]Amino]Amino]Acetamide] was tested, and the IC50 was 83.6 nM. `NC(=O)CN(NC(=O)[C@@H]1CCCN1S(=O)(=O)CCc1ccccc1)C(=O)CF` [Example 10, 2-[(2-Fluoroacetyl)-[[(2S)-1-(2-Phenylethylsulfonyl)Pyrrolidine-2-Carbonyl]Amino]Amino]Acetamide] showed an IC50 of 33.8 nM. `NC(=O)CN(NC(=O)[C@@H]1CCCN1C(=O)C1(c2ccccc2)CC1)C(=O)CF` [Example 8, 2-[(2-Fluoroacetyl)-[[(2S)-1-(1-Phenylcyclopropanecarbonyl)Pyrrolidine-2-Carbonyl]Amino]Amino]Acetamide] was tested, and the IC50 was 5 nM. `NC(=O)CN(NC(=O)[C@@H]1CCCN1S(=O)(=O)c1ccccc1)C(=O)CF` [Example 7, 2-[(2-Fluoroacetyl)-[[(2S)-1-(Benzenesulfonyl)Pyrrolidine-2-Carbonyl]Amino]Amino]Acetamide] showed an IC50 of 61.7 nM. In the case of `NC(=O)CN(NC(=O)[C@@H]1CCCN1C(=O)C(F)(F)c1ccccc1)C(=O)CF` [Example 1, 2-[(2-Fluoroacetyl)-[[(2S)-1-(2,2-Difluoro-2-Phenyl-Acetyl)Pyrrolidine-2-Carbonyl]Amino]Amino]Acetamide], the IC50 is reported as 3.6 nM. For `C#CCOc1ccc(C2(C(=O)N3CCC[C@H]3C(=O)NN(CC(N)=O)C(=O)CF)CC2)cc1` [Example 14, 2-[(2-Fluoroacetyl)-[[(2S)-1-[1-(4-Prop-2-Ynoxyphenyl)Cyclopropanecarbonyl]Pyrrolidine-2-Carbonyl]Amino]Amino]Acetamide], the IC50 was 1.4 nM. In the case of `NC(=O)CN(NC(=O)[C@@H]1CCCN1C(=O)Cc1ccccc1)C(=O)CF` [Example 5, 2-[(2-Fluoroacetyl)-[[(2S)-1-(2-Phenylacetyl)Pyrrolidine-2-Carbonyl]Amino]Amino]Acetamide], the IC50 is reported as 22.2 nM. In the case of `NC(=O)CN(NC(=O)[C@@H]1CCCN1C(=O)C1(c2ccc(Cl)cc2)CCC1)C(=O)CF` [Example 4, 2-[(2-Fluoroacetyl)-[[(2S)-1-[1-(4-Chlorophenyl)Cyclobutanecarbonyl]Pyrrolidine-2-Carbonyl]Amino]Amino]Acetamide], the IC50 is reported as 1.3 nM. `NC(=O)CN(NC(=O)[C@@H]1CCCN1C(=O)C1(c2ccccc2)CCC1)C(=O)CF` [Example 3] was tested, and the IC50 was 3.6 nM. `NC(=O)CN(NC(=O)[C@@H]1CCCN1C(=O)C1(c2ccc(Cl)cc2)CC1)C(=O)CF` [Example 6, 2-[(2-Fluoroacetyl)-[[(2S)-1-[1-(4-Chlorophenyl)Cyclopropanecarbonyl]Pyrrolidine-2-Carbonyl]Amino]Amino]Acetamide] showed an IC50 of 2.7 nM.

Same assay, conditions: 0.5 nM legumain, 0.5 uM Z-Ala-Ala-Asn-Rh110-(D-Pro), pH 5.8, 30 min preincubation at 25° C.; read-out: IC50 (AEP)
`COc1ccc(-c2ccc(S(=O)(=O)N3CCC[C@H]3C(=O)NN(CC(N)=O)C(=O)CCl)cc2)cc1` [Example 17, 2-[(2-Chloroacetyl)-[[(2S)-1-[4-(4-Methoxyphenyl)Phenyl]Sulfonylpyrrolidine-2-Carbonyl]Amino]Amino]Acetamide] gave an IC50 of 0.3 nM. Work on `COc1ccc(-c2ccc(S(=O)(=O)N3CCC[C@H]3C(=O)NN(CC(N)=O)C(=O)CF)cc2)cc1` [Example 13, 2-[(2-Fluoroacetyl)-[[(2S)-1-[4-(4-Methoxyphenyl)Phenyl]Sulfonylpyrrolidine-2-Carbonyl]Amino]Amino]Acetamide] yielded an IC50 of 1.5 nM.
